Measured values from patent publication US11896680B2, “Detection method” (Mie University, priority 2017, dated 2024).

Tests used:
[1] = test system: large intestine (cancer tumor site) of a colon cancer mouse; assay: vital staining of cancer tumor site in large intestine of colon cancer mouse, imaged with laser microscope; type: in vivo
Description: (§1) 100 mg of curcumin (Tokyo Kasei, cat. #C2302, purity 97.0%) was suspended in 5 mL of ethanol, and further diluted 10-fold with ethanol. It was mixed with the same amount of glycerin, and further diluted 10-fold with glycerin. The mixture was mixed with the same amount of purified water to obtain a staining solution of curcumin. As for Red #106, its staining solution is obtained by dissolving the powder in saline to the concentration of 1 mg/mL.
(§2) C57BL/6N mice purchased from Japan SLC, Inc. were used in the tests. All tests were performed on male, 8-week-old mice weighing 20˜25 grams.
Model mice with colon cancer were prepared by intraperitoneally administering 10 mg/kg of azoxymethane (AOM) dissolved in saline 4 times at weekly intervals to C57BL/6N mice.
(§3) A multiphoton laser microscope of FVMPE-RS (Olympus) was used with the irradiation wavelength of 800 nm. Laser irradiation was performed at 5.8˜48.2% of its full power output. A confocal laser microscope of FV1000 (Olympus) was used with the irradiation wavelength of 488 nm and 594 nm, wherein the laser irradiation at 488 nm was performed at […] of its full power output, and the laser irradiation at 594 nm was performed at 13˜13.5% of its full power output. The direction of irradiation and staining from serosal or luminal side are described in the figures.

[2] = test system: large intestine of a mouse (normal mucosal tissue); assay: vital staining of normal mouse large intestine, imaged with confocal or multiphoton laser microscope
Description: as §1, §2, §3

[3] = stained and photographed from luminal side, FIG. 11A and 11B
[4] = five-layer structure of normal large intestine
[5] = stained from serosa side, confocal laser microscope, FIG. 5c

Structure (SMILES) | staining of cytoplasm of invaded cancer cells inside smooth muscle layer relative to surrounding tissues ([1]; stained and observed from serosal side, confocal laser microscope, FIG. 10A) | staining of cytoplasm of cancer cells [1, 3] | staining of nuclei of cancer cells [1, 3] | staining of Auerbach's plexus inside muscle layer [2, 4] | staining of glandular cells in epithelial and glandular layers (1) [2, 4] | staining of the smooth muscle in muscle layer (4) [2, 4] | staining of the smooth muscle in muscularis mucosae (2) [2, 4] | staining of nerve fibers of Auerbach's plexus [2, 5] | staining of perikaryon of Auerbach's plexus [2, 5] | staining of network of capillaries surrounding the glandular structures of epithelial and glandular layers (1) [2, 4] | staining of the wall of a thick blood vessel inside muscle layer [2, 4]
COc1cc(/C=C/C(=O)CC(=O)/C=C/c2ccc(O)c(OC)c2)ccc1O [curcumin] | darker than surrounding tissues | stained severely | stained negatively | severely positive | severely positive | mildly positive | severely positive | lightly | darkly | – | –
CCN(CC)c1ccc2c(-c3ccc(S(=O)(=O)[O-])cc3S(=O)(=O)[O-])c3ccc(=[N+](CC)CC)cc-3oc2c1.[Na+] [Red #106] | – | – | – | – | – | mildly positive | mildly positive | – | – | severely positive | severely positive
